Measured values: patent US20250197387A1, “BCL-XL DEGRADERS AND USES THEREOF” (Kymera Therapeutics, Inc., priority 2021, published 2025)

Experiments:
Type in all cases: cell-based
BCL-XL [1] = molecular target: T1, BCL-XL (Homo sapiens, UniProt Q07817); assay: BCL-XL degradation assay, western blot in MOLT-4 cells, 16 h; conditions: western blot, MOLT-4 cells, 16 h; for Dmax: read-out: Bcl-xL WB in MOLT-4 degradation 16 h: Average Dmax %; for DC50: read-out: Bcl-xL WB in MOLT-4 degradation 16 h: Mean external-Abs DC50
T1 construct: endogenous in cells; host or cells: MOLT-4
Method in brief: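 Infrared-imaged western blots quantified BCL-xL (normalised against beta-actin/GAPDH) after 16 hr, 37° C exposure of MOLT-4 cells to 0.02-10 μM compound; results given as DC50 and Dmax % bins.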

BCL-XL [2] = molecular target: T1, BCL-XL; assay: Bcl-xL ELISA degradation in MOLT-4 cells, 6 h; conditions: for DC50: read-out: Bcl-xL ELISA in MOLT-4 degradation 6 h: Mean external-Abs DC50
Method: The letter codes for BCL-XL DC50 include: A (<0.01 μM); B (0.01-0.1 μM); C (>[…]); D (>0.5-1.0 μM); and E (>1.0 μM). The letter codes for Dmax % include A (>75%); B (50 to 75%); C (<50%).

MOLT-4 cells = assay: CTG (CellTiter-Glo) cell viability assay, MOLT-4; conditions: Homo sapiens, MOLT-4, 72 h, 3 day incubation, read-out: CTG Cell Viability Assay - MOLT-4 3 day: Average external-IC50
Method in brief: (§1)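 Nine-point 1:3 compound series topping at 10 μM (0.2% DMSO final) applied for 3 days to 10,000 MOLT-4 or Caki-2 cells per well, 37° C., 5% CO2. CellTiter-Glo luminescence read after 10 min at room temperature; three-parameter fit gave IC50.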

Caki-2 cells = assay: CTG (CellTiter-Glo) cell viability assay, Caki-2; conditions: Homo sapiens, 72 h, 3 day incubation, read-out: CTG Chempartner - Caki-2 3 day: Average external-IC50
Method in brief: as §1

T1 sequence (Q07817 whole entry): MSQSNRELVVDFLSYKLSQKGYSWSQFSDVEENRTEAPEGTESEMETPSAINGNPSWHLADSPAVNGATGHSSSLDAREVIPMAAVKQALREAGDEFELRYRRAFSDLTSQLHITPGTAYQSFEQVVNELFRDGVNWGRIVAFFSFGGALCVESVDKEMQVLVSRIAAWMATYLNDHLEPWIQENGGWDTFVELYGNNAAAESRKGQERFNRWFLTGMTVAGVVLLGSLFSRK

| Compound | Dmax (BCL-XL [1]) [%] | DC50 (BCL-XL [1]) [nM] | Dmax (BCL-XL [2]) [%] | DC50 (BCL-XL [2]) [nM] | IC50 (MOLT-4 cells) [nM] | IC50 (Caki-2 cells) [nM] |
| --- | --- | --- | --- | --- | --- | --- |
| Cc1ncsc1-c1ccc(CNC(=O)[C@@H]2C[C@@H](O)CN2C(=O)[C@@H](NC(=O)C2(F)CC2)C(C)(C)C)c(OCCCCCS(=O)(=O)NC(=O)c2nc(N3CCc4cccc(C(=O)Nc5nc6cccnc6s5)c4C3)ccc2-c2cnn(CC3CCCCC3)c2C)c1 [I-187] | > 75 | 10 to 100 | 50 to 75 | 10 to 100 | 100 to 1000 | > 10000 |
| Cc1ncsc1-c1ccc([C@H](C)NC(=O)[C@@H]2C[C@@H](O)CN2C(=O)[C@@H](NC(=O)C2CCN(c3ccc(S(=O)(=O)NC(=O)c4nc(N5CCc6cccc(C(=O)Nc7nc8ccccc8s7)c6C5)ccc4-c4cnn(CC5CCCCC5)c4C)cc3)CC2)C(C)(C)C)cc1 [I-195] | > 75 | < 10 | > 75 | 10 to 100 | < 100 | 1000 to 10000 |
| Cc1ncsc1-c1ccc(CNC(=O)[C@@H]2C[C@@H](O)CC2C(=O)[C@@H](NC(=O)C2(F)CC2)C(C)(C)C)c(OCCCCCCNC(=O)c2nc(N3CCc4cccc(C(=O)Nc5nc6ccccc6s5)c4C3)ccc2-c2cnn(CC3CCCCC3)c2C)c1 (stereo partly drawn) [I-158] | 50 to 75 | 100 to 500 | < 50 | > 1000 | 1000 to 3000 | > 10000 |
| Cc1ncsc1-c1ccc([C@H](C)NC(=O)[C@@H]2C[C@@H](O)CN2C(=O)[C@@H](NC(=O)CCCCCCC(=O)N2CCN(CC3(C)CCC(c4ccc(Cl)cc4)=C(CN4CCN(c5ccc(C(=O)NS(=O)(=O)c6ccc(N[C@H](CCN7CCOCC7)CSc7ccccc7)c(S(=O)(=O)C(F)(F)F)c6)cc5)CC4)C3)CC2)C(C)(C)C)cc1 (stereo partly drawn) [I-395] | > 75 | < 10 | < 50 | 10 to 100 | < 100 | 100 to 1000 |
| C#Cc1ccc([C@H](CO)NC(=O)[C@@H]2C[C@@H](O)CN2C(=O)[C@@H](NC(=O)CCc2ccc(S(=O)(=O)NC(=O)c3nc(N4CCc5cccc(C(=O)Nc6nc7cccnc7s6)c5C4)ccc3-c3cnn(CC4CCCCC4)c3C)cc2)C(C)(C)C)cc1 [I-205] | > 75 | < 10 | > 75 | 10 to 100 | 100 to 1000 | > 10000 |
| Cc1ncsc1-c1ccc(CNC(=O)[C@@H]2C[C@@H](O)CN2C(=O)[C@@H](NC(=O)C2(F)CC2)C(C)(C)C)c(OCCN2CCN(CC[C@H](CSc3ccccc3)Nc3ccc(S(=O)(=O)NC(=O)c4ccc(N5CCN(CC6=C(c7ccc(Cl)cc7)CCC(C)(C)C6)CC5)cc4)cc3S(=O)(=O)C(F)(F)F)CC2)c1 [I-394] | > 75 | < 10 | 50 to 75 | 10 to 100 | < 100 | > 10000 |
| Cc1ncsc1-c1ccc([C@H](C)NC(=O)[C@@H]2C[C@@H](O)CN2C(=O)[C@@H](NC(=O)CCCCCCC(=O)N2CCN(C[C@]3(C)CCC(c4ccc(Cl)cc4)=C(CN4CCN(c5ccc(C(=O)NS(=O)(=O)c6ccc(N[C@H](CCN7CCOCC7)CSc7ccccc7)c(S(=O)(=O)C(F)(F)F)c6)cc5)CC4)C3)CC2)C(C)(C)C)cc1 [I-397] | > 75 | < 10 | 50 to 75 | 10 to 100 | < 100 | 100 to 1000 |
| C#Cc1ccc(CNC(=O)[C@@H]2C[C@@H](O)CN2C(=O)[C@@H](NC(=O)CCCS(=O)(=O)NC(=O)c2nc(N(C)c3cc(C)c(Nc4nc5ccccc5s4)nn3)ccc2-c2cnn(CC3CCCCC3)c2C)C(C)(C)C)cc1 [I-340] | > 75 | 100 to 500 | 50 to 75 | 10 to 100 | 100 to 1000 | > 10000 |
